System: MV-4-11 cells
Experiment: Gene expression microarray analysis (Affymetrix PrimeView) and GSEA
Type: cell-based, human
Settings: ProbeSet 11733176_x_at; LIST B

With `Nc1ccc(-c2cccs2)cc1NC(=O)c1ccc2c(c1)cc(C1CC1)n2CCN1CCOCC1` [ACY-1035] as the compound, how does the “RFU, ZNF507” value read?
The value was 24.05 RFU.

Reference: paper PMC5218480 (PLoS ONE, 2017)
